Counter-ions that a name gives are not always drawn.

This experiment can be described thus: Antiproliferative activity against thrombin-induced […] smooth muscle cells isolated from Sprague-Dawley rat aorta after 2 days by MTT assay. The settings on record: VSMC, 48 h. The experiment is classed as functional. A general note: Tetrazolium assays rely on reduction of a dye to a coloured formazan, in cell work by metabolically active cells.
Broadly, the IC50 is the concentration needed to halve the response being measured. High values mean weaker potency, low ones greater potency. As for `CCOc1cc2c(c(F)c1OCC)C(=N)N(CC(=O)c1cc(N3CCC(O)CC3)c(OC)c(C(C)(C)C)c1)C2`, inhibition was half-maximal at 23 nM (IC50).
In turn, `CCOc1cc2c(c(F)c1OCC)C(=N)N(CC(=O)c1cc(N3CCNCC3)c(OC)c(C(C)(C)C)c1)C2` registered a half-maximal inhibitory concentration (IC50) of 52 nM. This IC50 lies about 2.3-fold higher than the previous one.
As to `CCOc1cc2c(c(F)c1OCC)C(=N)N(CC(=O)c1cc(N3CCN(CC#N)CC3)c(OC)c(C(C)(C)C)c1)C2`, 75 nM corresponded to half-maximal inhibition (IC50).
Turning to `CCOc1cc2c(c(F)c1OCC)C(=N)N(CC(=O)c1cc(N3CCN(CC(=O)O)CC3)c(OC)c(C(C)(C)C)c1)C2`, the IC50 stood at 150 nM.
Then `CCOc1cc2c(c(F)c1OCC)C(=N)N(CC(=O)c1cc(N3CCOCC3)c(OC)c(C(C)(C)C)c1)C2` [ATOPAXAR HYDROBROMIDE], with 32 nM.

The values above are taken from ChEMBL document CHEMBL3880385, “2-Iminoisoindolinone derivatives as thrombin receptor antagonists” (2011).
